Experiments:
Beagle dogs [1] = assay: Intraocular pressure in dogs (pneumatonometry); format: in vivo; conditions: 0.005% topical 25 μL drop, 5 day study
Procedure: (§1) Intraocular pressure studies in dogs involved pneumatonometry performed in conscious, Beagle dogs of both sexes (10-15 kg). The animals remained conscious throughout the study and were gently restrained by hand. Drugs were administered topically to one eye as a 25 μL volume drop, the other eye received 25 μL vehicle (0.1% polysorbate 80:10 mM TRIS) as a control. Proparacaine (0.1%) was used for corneal anesthesia during tonometry. Intraocular pressure was determined just before drug administration and at 2, 4 and 6 hr thereafter on each day of the 5 day study. Drug was administered immediately after the first IOP reading.

cynomolgus monkeys = assay: Intraocular pressure in cynomolgus monkeys; format: in vivo; conditions: 0.005% topical, single dose
Procedure: as §1
An analogous procedure was carried out with cynomolgus monkeys with measurements at 2, 4, 6, and 24 hours after a single dose.

rabbit = assay: Ocular surface hyperemia in rabbits; format: in vivo; conditions: 0.005%, score 0.5 trace, 1 mild, 2 moderate, 3 severe
Procedure: (§2) Ocular surface hyperemia was visually assessed and scored according to a system typically used clinically.
(§3) Ocular surface hyperemia was evaluated at the same time points as intraocular pressure measurement. It should be noted that untreated dog eyes frequently have a pink/red tone. Thus, values of trace or even mild are not necessarily out of the normal range. A similar procedure was used to determine rabbit hyperemia.

Beagle dogs [2] = assay: Ocular surface hyperemia in dogs; format: in vivo; conditions: 0.005% topical, score 0.5 trace, 1 mild, 2 moderate, 3 severe
Procedure: as §1, §2, §3

hEP3A/Gqi5 = target: T1, hEP3A/Gqi5 (Homo sapiens, UniProt P43115); assay: FLIPR calcium signal, hEP3A/Gqi5; format: cell-based; conditions: HEK-293(EBNA) cells, read-out: OTHER RECEPTORS Ca2+ EC50: EP3
T1 construct: expressed in transfected cells
T1 sequence (P43115 1-390): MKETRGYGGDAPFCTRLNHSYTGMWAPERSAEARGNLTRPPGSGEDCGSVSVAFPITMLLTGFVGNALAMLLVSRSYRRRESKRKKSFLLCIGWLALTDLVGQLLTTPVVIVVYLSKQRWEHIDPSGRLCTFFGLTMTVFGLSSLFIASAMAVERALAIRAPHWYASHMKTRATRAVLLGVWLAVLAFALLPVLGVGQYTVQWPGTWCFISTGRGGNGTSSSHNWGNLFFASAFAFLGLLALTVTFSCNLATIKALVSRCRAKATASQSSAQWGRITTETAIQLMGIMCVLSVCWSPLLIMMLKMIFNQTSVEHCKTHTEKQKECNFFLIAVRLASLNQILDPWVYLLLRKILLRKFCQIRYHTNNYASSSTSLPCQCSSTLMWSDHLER
Procedure: (§4) HEK-293(EBNA) cells, stably expressing one type or subtype of recombinant human prostaglandin receptors (prostaglandin receptors expressed: hDP/Gqs5; hEP1; hEP2/Gqs5; hEP3A/Gqi5; hEP4/Gqs5; hFP; hIP; hTP), are cultured in 100 mm culture dishes in high-glucose DMEM medium containing 10% fetal bovine serum, 2 mM 1-glutamine, 250 μg/ml geneticin (G418) and 200 μg/ml hygromycin B as selection markers, and 100 units/ml penicillin G, 100 μg/ml streptomycin and 0.25 μg/ml amphotericin B.
(§5) Cells are seeded at a density of 5×10^4 cells per well in Biocoat® Poly-D-lysine-coated black-wall, clear-bottom 96-well plates (Becton-Dickinson) and allowed to attach overnight in an incubator at 37° C. Cells are then washed two times with HBSS-HEPES buffer (Hanks Balanced Salt Solution without bicarbonate and phenol red, 20 mM HEPES, pH 7.4) using a Denley Cellwash plate washer (Labsystems). After 45 minutes of dye-loading in the dark, using the calcium-sensitive dye Fluo-4 AM at a final concentration of 2 μM, plates are washed four times with HBSS-HEPES buffer to remove excess dye leaving 100 μl in each well. Plates are re-equilibrated to 37° C. for a few minutes.
(§6) Cells are excited with an Argon laser at 488 nm, and emission is measured through a 510-570 nm bandwidth emission filter (FLIPR™, Molecular Devices, Sunnyvale, Calif.). Drug solution is added in a 50 μl volume to each well to give the desired final concentration. The peak increase in fluorescence intensity is recorded for each well. On each plate, four wells each serve as negative (HBSS-HEPES buffer) and positive controls (standard agonists: BW245C (hDP); PGE2 (hEP1; hEP2/Gqs5; hEP3A/Gqi5; hEP4/Gqs5); PGF2α (hFP); carbacyclin ([…]); U-46619 (hTP), depending on receptor). The peak fluorescence change in each drug-containing well is then expressed relative to the controls.
(§7) Compounds are tested in a high-throughput (HTS) or concentration-response (CoRe) format. […]

hEP2/Gqs5 = target: T2, hEP2/Gqs5 (Homo sapiens, UniProt P43116); assay: FLIPR calcium signal, hEP2/Gqs5; format: cell-based; conditions: HEK-293(EBNA) cells, read-out: EP2 Ca2+ EC50
T2 construct: expressed in transfected cells
Procedure: as §4, §5, §6, §7

EP2 receptor = target: T3, EP2 receptor (Homo sapiens, UniProt P43116); assay: Radioligand binding, EP2 receptor; conditions: [3H]PGE2 competition, HEK-293 membranes
T3 construct: expressed in transfected cells; membrane fraction
Procedure: (§8) HEK-293 cells stably expressing the human or feline FP receptor, or EP1, EP2, or EP4 receptors are washed with TME buffer, scraped from the bottom of the flasks, and homogenized for 30 sec using a Brinkman PT 10/35 polytron. TME buffer is added to achieve a final 40 ml volume in the centrifuge tubes (the composition of TME is 100 mM TRIS base, 20 mM MgCl2, […]; 10N HCl is added to achieve a pH of 7.4).
(§9) The cell homogenate is centrifuged at 19000 r.p.m. for 20 min at 4° C. using a Beckman Ti-60 rotor. The resultant pellet is resuspended in TME buffer to give a final 1 mg/ml protein concentration, as determined by Biorad assay. Radioligand binding competition assays vs. [^3H—]17 phenyl PGF2α (5 nM) are performed in a 100 μl volume for 60 min. Binding reactions are started by adding plasma membrane fraction. The reaction is terminated by the addition of 4 ml ice-cold TRIS-HCl buffer and rapid filtration through glass fiber GF/B filters using a Brandel cell harvester. The filters are washed 3 times with ice-cold buffer and oven dried for one hour. Non-specific binding is determined with 10 uM unlabeled 17 phenyl PGF2α.
(§10) [^3H—] PGE2 (5 nM; specific activity 180 Ci mmol) is used as the radioligand for EP receptors. Binding studies employing EP1, EP2, EP3, EP4 are performed in duplicate in at least three separate experiments. A 200 μl assay volume is used. Incubations are for 60 min at 25° C. and are terminated by the addition of 4 ml of ice-cold 50 mM TRIS-HCl, followed by rapid filtration through Whatman GF/B filters and three additional 4 ml washes in a cell harvester (Brandel). Non-specific binding is determined with 10^−5M of unlabeled PGE2.

EP4 receptor = target: T4, EP4 receptor (Homo sapiens, UniProt P35408); assay: Radioligand binding, EP4 receptor; conditions: [3H]PGE2 competition, HEK-293 membranes
T4 construct: expressed in transfected cells; membrane fraction
Procedure: as §8, §9, §10

hEP4/Gqs5 = target: T5, hEP4/Gqs5 (Homo sapiens, UniProt P35408); assay: FLIPR calcium signal, hEP4/Gqs5; format: cell-based; conditions: HEK-293(EBNA) cells, read-out: EP4 Ca2+ EC50
T5 construct: expressed in transfected cells
Procedure: as §4, §5, §6
Compounds are tested in a high-throughput (HTS) or concentration-response (CoRe) format. In the HTS format, forty-four compounds per plate are examined in duplicates at a concentration of 10^−5 M. To generate concentration-response curves, four compounds per plate are tested in duplicates in a concentration range between 10^−5 and 10^−11 M. The duplicate values are averaged. In either, HTS or CoRe format each compound is tested on at least 3 separate plates using cells from different passages to give an n≧3.

T2 sequence (P43116 whole entry): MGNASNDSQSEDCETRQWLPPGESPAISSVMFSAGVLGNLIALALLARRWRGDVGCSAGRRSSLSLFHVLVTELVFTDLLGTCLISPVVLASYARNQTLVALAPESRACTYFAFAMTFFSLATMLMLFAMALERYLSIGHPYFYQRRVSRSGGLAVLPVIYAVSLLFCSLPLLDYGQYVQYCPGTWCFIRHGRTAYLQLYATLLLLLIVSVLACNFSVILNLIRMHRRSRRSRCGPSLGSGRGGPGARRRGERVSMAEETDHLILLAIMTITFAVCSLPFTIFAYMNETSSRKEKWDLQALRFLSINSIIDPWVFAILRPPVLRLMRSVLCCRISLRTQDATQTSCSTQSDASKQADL
T3 sequence (P43116 whole entry): as above
T5 sequence (P35408 whole entry): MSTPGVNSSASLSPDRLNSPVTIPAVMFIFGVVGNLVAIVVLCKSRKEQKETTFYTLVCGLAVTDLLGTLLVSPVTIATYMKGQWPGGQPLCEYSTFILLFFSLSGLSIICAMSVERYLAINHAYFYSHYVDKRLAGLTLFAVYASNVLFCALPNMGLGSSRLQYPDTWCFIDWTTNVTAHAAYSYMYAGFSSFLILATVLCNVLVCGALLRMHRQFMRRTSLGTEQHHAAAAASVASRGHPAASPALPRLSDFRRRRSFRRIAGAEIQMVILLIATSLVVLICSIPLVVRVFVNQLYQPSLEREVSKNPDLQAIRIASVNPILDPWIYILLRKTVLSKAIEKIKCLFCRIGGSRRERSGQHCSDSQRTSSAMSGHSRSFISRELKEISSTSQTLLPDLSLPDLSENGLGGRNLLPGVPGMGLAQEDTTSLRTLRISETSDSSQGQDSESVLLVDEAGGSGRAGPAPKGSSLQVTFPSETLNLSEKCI
T4 sequence (P35408 whole entry): as above

Rabbit Max Hyperemia (rabbit) | Dog Max Hyperemia (Beagle dogs [2]) | EC50 (hEP3A/Gqi5) | EC50 (hEP2/Gqs5) | Ki (EP2 receptor) | Ki (EP4 receptor) | EC50 (hEP4/Gqs5) | Compound | Dog Max ΔIOP (Beagle dogs [1]) | Monkey Max ΔIOP (cynomolgus monkeys)
0.1 | 1.3 |  |  |  |  |  | CC1(C)C(=O)[C@H](C/C=C\CCCC(=O)O)[C@@H](/C=C/C(O)CCc2ccc3ccccc3c2)[C@@H]1O (stereo partly drawn) | 2 mm Hg | 8 mm Hg
 |  | 4020 nM | > 10000 nM | > 10000 nM | 14 nM | 0.17 nM | CC1(C)C(=O)[C@H](C/C=C\CCCC(=O)O)[C@@H](/C=C/C(O)CCc2ccc3ccccc3c2)[C@@H]1O (single isomer, unassigned) [drawing 23] |  | 
 |  | 1020 nM | > 10000 nM | 16900 nM | 111 nM | 1.3 nM | CC1(C)C(=O)[C@H](C/C=C\CCCC(=O)O)[C@@H](/C=C/C(O)CCc2ccc3ccccc3c2)[C@@H]1O (single isomer, unassigned) [drawing 24] |  | 
 |  | 1020 nM |  | 36200 nM | 1240 nM | 16.3 nM | CC1(C)C(=O)[C@H](CC#CCCCC(=O)O)[C@@H](/C=C/C(O)CCc2ccc3ccccc3c2)[C@@H]1O (single isomer, unassigned) [drawing 25] |  | 
 |  |  | > 10000 nM |  | 1860 nM | 8 nM | CC1(C)C(=O)[C@H](CC#CCCCC(=O)O)[C@@H](/C=C/C(O)CCc2ccc3ccccc3c2)[C@@H]1O (single isomer, unassigned) [drawing 26] |  | 
